According to patent US7214659B2, “Reduction of the electrocardiographic QT interval” (Creative Peptides Sweden AB, priority 2000, dated 2007):

Key:
patients with IDDM = experiment: QTc interval during 3 h C-peptide infusion, randomised double blind study (Example 3); assay type: in vivo, human; conditions: infused for 3 hours; NaCl placebo; FIG. 4
Description: Twelve patients were investigated twice in a randomised double blind study where C-peptide or a NaCl placebo were infused for 3 hours. The same procedure as described in Example 1 was followed.

IDDM patients = experiment: QTc interval after 3 months of s.c. C-peptide, randomised cross over study (Example 2); assay type: in vivo, human; conditions: 6 patients with prolonged QTc interval at the outset (>420 ms), 600 nmol per 24 h s.c. in 3 doses
Description: In a further study (different results from which were published in Diabetic Medicine, Vol. 17 (2000) p. 181–189, Johannson, Bo-Lennart et al.) 21 IDDM patients were monitored for 6 months according to a randomised cross over regimen wherein C-peptide was administered for 3 months and a placebo.
Further details of the study can be found in the above referenced paper in Diabetic Medicine but in summary, biosynthetic human C-peptide (Eli Lilly Co.) or a placebo comprising just the C-peptide solvent was injected sub-cutaneously 3 times per day. The total 24 h dose of C-peptide was 600 nmol (225 nmol 30 mins before breakfast, 150 nmol before dinner and 225 nmol at bedtime).
ECGs were recorded at the start of the programme and after 3 and then 6 months of the study. These recordings were then used to measure the QTc interval as described in Example 1.

[1] = test system: IDDM patients with autonomic neuropathy; experiment: QTc interval during 3 h i.v. C-peptide infusion, randomized double-blind study (Example 1); assay type: in vivo, human; conditions: during three hours of C-peptide i.v., 6 pico mole per kg per minute; basal QTc 0.429±0.004s; decreased significantly, p<0.05
Description: The QTc interval will vary from patient to patient but can generally be considered prolonged when it exceeds 420 ms in men and 430 ms in women. QTc is the corrected (for heart rate influence) QT interval. It is calculated according to Bazett's formula (QTc=QT/√{square root over (R)}R). QT and RR are conveniently measured using a ruler on an ECG tracing; the QT interval is measured from the beginning of the QRS complex to the end of the crossing of the isoelectric line of the T wave, see the stylised representation in FIG. 1. Any reduction in the interval can be beneficial to the patient, preferably the interval will be reduced by at least 3 ms, more preferably treatment will reduce the QTc interval by at least 5 ms, particularly preferably at least 8 ms even at least 10 ms. […]
Before and during the three hour session a complete 12 lead electrocardiogram was recorded to evaluate heart rate variability during deep breathing. […] The […] (one patient could not take part in a second session and one patient's ECG tracing was not possible to evaluate) were analyzed blindly by two persons. The RR and QT interval were measured with a ruler. […] Five intervals from the precordial leads and five intervals from the extremity leads were measured on each occasion and a mean was calculated. […]

[2] = Plasma C-peptide and blood glucose levels during 3 h i.v. C-peptide infusion (Example 1); assay type: in vivo; conditions: both sexes, human, iv, during the C-peptide infusion, 6 pico mole per kg per minute i.v. for 180 minutes, 0.11±0.02 nmol/l before the study
Text: In this study 12 IDDM patients (six male and six female) with autonomic neuropathy participated in two different sessions in a randomized, double-blind study (one patient attended one time only). Their mean age was 40 and mean duration of diabetes was 21 years. In eight patients the fasting plasma C-peptide levels were below the detection limit (<0.10 nmol/l), the remaining four varied between 0.13 and 0.25 nmol/l. Eleven patients had decreased heart rate variability during deep breathing as evidence of autonomic neuropathy. On each occasion they received insulin i.v. for 9–12 hours before the study and blood glucose levels were tested every 1–2 hours during the night. The insulin infusion was adjusted to achieve euglycaemia (5–6 mmol/l). The patients were then given either saline or C-peptide i.v. for 180 minutes. 6 pico mole per kg per minute was administered.

level at time molar [2]: 1.73 ± 0.04 nM
SMILES: CC(C)C[C@H](NC(=O)[C@H](C)NC(=O)[C@H](CC(C)C)NC(=O)[C@@H]1CCCN1C(=O)[C@H](CCC(N)=O)NC(=O)[C@H](CC(C)C)NC(=O)[C@H](CO)NC(=O)CNC(=O)[C@H](C)NC(=O)CNC(=O)[C@@H]1CCCN1C(=O)CNC(=O)CNC(=O)CNC(=O)[C@H](CC(C)C)NC(=O)[C@H](CCC(=O)O)NC(=O)[C@@H](NC(=O)[C@H](CCC(N)=O)NC(=O)CNC(=O)[C@@H](NC(=O)[C@H](CCC(N)=O)NC(=O)[C@H](CC(C)C)NC(=O)[C@H](CC(=O)O)NC(=O)[C@H](CCC(=O)O)NC(=O)[C@H](C)NC(=O)[C@@H](N)CCC(=O)O)C(C)C)C(C)C)C(=O)N[C@@H](CCC(=O)O)C(=O)NCC(=O)N[C@@H](CO)C(=O)N[C@@H](CC(C)C)C(=O)N[C@@H](CCC(N)=O)C(=O)O [C-peptide]
QTc interval during C-peptide treatment compared to placebo (patients with IDDM): decrease in QTc interval
QTc interval, C-peptide phase compared to placebo phase (IDDM patients): clear shortening of the QTc interval
mean QTc interval [1]: 0.422 ± 0.006 s
